Biological target: USP7 (Homo sapiens, UniProt Q93009)
Assay: USP7 inhibitory potency (IC50)
Type: biochemical
Procedure: Activity for compounds described herein is provided in Table 2, wherein potency levels are provided as follows: (Potency: USP7 IC50: A<0.01 μM; B=0.01-0.1 μM; C=>0.1 μM.

Chain of USP7 (Q93009 whole entry): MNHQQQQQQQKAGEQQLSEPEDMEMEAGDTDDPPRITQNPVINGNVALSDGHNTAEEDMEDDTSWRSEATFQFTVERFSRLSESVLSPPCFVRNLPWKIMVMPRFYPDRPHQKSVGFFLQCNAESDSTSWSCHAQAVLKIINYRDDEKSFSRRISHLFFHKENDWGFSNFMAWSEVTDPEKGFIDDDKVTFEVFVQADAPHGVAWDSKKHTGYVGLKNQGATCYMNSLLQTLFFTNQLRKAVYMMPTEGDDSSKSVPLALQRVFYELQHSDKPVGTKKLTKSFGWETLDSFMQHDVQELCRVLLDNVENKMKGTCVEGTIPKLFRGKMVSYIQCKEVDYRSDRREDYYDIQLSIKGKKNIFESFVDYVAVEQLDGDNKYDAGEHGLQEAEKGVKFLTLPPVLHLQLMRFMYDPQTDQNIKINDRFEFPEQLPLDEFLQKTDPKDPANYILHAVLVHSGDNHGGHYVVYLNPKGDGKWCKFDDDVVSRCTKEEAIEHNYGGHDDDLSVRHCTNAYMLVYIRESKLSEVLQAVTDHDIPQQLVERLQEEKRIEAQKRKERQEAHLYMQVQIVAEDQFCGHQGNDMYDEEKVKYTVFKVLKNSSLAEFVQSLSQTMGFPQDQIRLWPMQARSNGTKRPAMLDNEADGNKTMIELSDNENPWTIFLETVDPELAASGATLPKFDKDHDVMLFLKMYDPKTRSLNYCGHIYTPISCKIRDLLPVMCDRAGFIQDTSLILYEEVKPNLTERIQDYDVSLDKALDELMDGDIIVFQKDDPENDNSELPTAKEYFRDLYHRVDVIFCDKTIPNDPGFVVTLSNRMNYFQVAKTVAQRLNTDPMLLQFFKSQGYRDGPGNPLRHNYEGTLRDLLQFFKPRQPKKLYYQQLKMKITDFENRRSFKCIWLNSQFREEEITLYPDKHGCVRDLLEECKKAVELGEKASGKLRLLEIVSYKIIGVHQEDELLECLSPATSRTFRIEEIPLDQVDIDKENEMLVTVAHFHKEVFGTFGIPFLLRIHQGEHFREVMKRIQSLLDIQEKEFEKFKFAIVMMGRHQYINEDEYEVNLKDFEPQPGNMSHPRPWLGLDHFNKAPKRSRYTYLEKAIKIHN

SMILES | IC50 [nM]
Cc1cc(Cl)cc(-c2ccnc3cc(Cn4c(=O)ccn(CC(F)(F)F)c4=O)sc23)c1CN1CCCNCC1=O [Example 256, 3-((7-(5-chloro-3-methyl-2-((2-oxo-1,4-diazepan-1-yl)methyl)phenyl)thieno[3,2-b]pyridin-2-yl)methyl)-1-(2,2,2-trifluoroethyl)pyrimidine-2,4(1H,3H)-dione] | 10 to 100
Cc1cc(Cl)cc(-c2ncnc3cc(CN4C(=O)CCC4=O)sc23)c1CC1CNCC(C)(C)O1 (stereo not shown) [Example 190, 1-((4-(5-chloro-2-((6,6-dimethylmorpholin-2-yl)methyl)-3-methylphenyl)thieno[3,2-d]pyrimidin-6-yl)methyl)pyrrolidine-2,5-dione] | < 10
Cc1cc(Cl)cc(-c2ncnc3cc(CN4CCCCC4=O)sc23)c1CN1C[C@@H](C)NC[C@@H]1C [Example 82, 1-((4-(5-chloro-2-(((2S,5R)-2,5-dimethylpiperazin-1-yl)methyl)-3-methylphenyl)thieno[3,2-d]pyrimidin-6-yl)methyl)piperidin-2-one] | > 100
Cc1cc(Cl)cc(-c2ccnc3cc(CN4C(=O)C5CC5C4=O)sc23)c1CN1CCNC(=O)C1C (stereo not shown) [Example 40, 3-((7-(5-chloro-3-methyl-2-((2-methyl-3-oxopiperazin-1-yl)methyl)phenyl)thieno[3,2-b]pyridin-2-yl)methyl)-3-azabicyclo[3.1.0]hexane-2,4-dione] | 10 to 100
Cc1cc(Cl)cc(-c2ccnc3c(F)c(CN4C(=O)CC[C@@H]4CF)sc23)c1C[C@@H]1CNCCO1 [Example 149, (R)-1-((7-(5-chloro-3-methyl-2-(((R)-morpholin-2-yl)methyl)phenyl)-3-fluorothieno[3,2-b]pyridin-2-yl)methyl)-5-(fluoromethyl)pyrrolidin-2-one] | 10 to 100
Cc1cc(Cl)cc(-c2ncnc3cc(Cn4c(=O)ccn(C)c4=O)sc23)c1CC1CNCC2(CCC2)O1 (stereo not shown) [Example 223, 3-((4-(2-((5-oxa-8-azaspiro[3.5]nonan-6-yl)methyl)-5-chloro-3-methylphenyl)thieno[3,2-d]pyrimidin-6-yl)methyl)-1-methylpyrimidine-2,4(1H,3H)-dione] | < 10
Cc1cc(Cl)cc(-c2ccnc3cc(CN4C(=O)C5CC5C4=O)sc23)c1CN1C[C@@H](C)NC[C@H]1C (stereo partly drawn) [Example 34, 3-((7-(5-chloro-2-(((2R,5R)-2,5-dimethylpiperazin-1-yl)methyl)-3-methylphenyl)thieno[3,2-b]pyridin-2-yl)methyl)-3-azabicyclo[3.1.0]hexane-2,4-dione] | < 10
Cc1cc(Cl)cc(-c2ncnc3cc(CN4C(=O)[C@@H]5CCCN5C4=O)sc23)c1CN1[C@@H](C)CNC[C@@H]1C [Example 88, (S)-2-((4-(5-chloro-2-(((2S,6S)-2,6-dimethylpiperazin-1-yl)methyl)-3-methylphenyl)thieno[3,2-d]pyrimidin-6-yl)methyl)tetrahydro-1H-pyrrolo[1,2-c]imidazole-1,3(2H)-dione] | < 10
Cc1cc(Cl)cc(-c2ncnc3cc(CN4C(=O)C5CC5C4=O)sc23)c1CC1OCCNC1(C)C (stereo not shown) [Example 159, 3-((4-(5-chloro-2-((3,3-dimethylmorpholin-2-yl)methyl)-3-methylphenyl)thieno[3,2-d]pyrimidin-6-yl)methyl)-3-azabicyclo[3.1.0]hexane-2,4-dione] | 10 to 100
Cc1cc(Cl)cc(-c2ncnc3cc(CN4C(=O)C5C(C4=O)C5(C)C)sc23)c1CC1CNCCO1 (stereo not shown) [Example 151, 3-((4-(5-chloro-3-methyl-2-(morpholin-2-ylmethyl)phenyl)thieno[3,2-d]pyrimidin-6-yl)methyl)-6,6-dimethyl-3-azabicyclo[3.1.0]hexane-2,4-dione] | < 10
Cc1cc(Cl)cc(-c2ncnc3cc(CNC4(CCC(=O)O)CC4)sc23)c1CC1CNCC(C)(C)O1 (stereo not shown) [Example 202, 3-(1-(((4-(5-chloro-2-((6,6-dimethylmorpholin-2-yl)methyl)-3-methylphenyl)thieno[3,2-d]pyrimidin-6-yl)methyl)amino)cyclopropyl)propanoic acid] | 10 to 100
Cc1cc(Cl)cc(-c2ncnc3cc(CN4C(=O)C5C(C4=O)C5(C)C)sc23)c1CN1CCN(C)C[C@@H]1C (stereo partly drawn) [Example 53, 3-((4-(5-chloro-2-(((S)-2,4-dimethylpiperazin-1-yl)methyl)-3-methylphenyl)thieno[3,2-d]pyrimidin-6-yl)methyl)-6,6-dimethyl-3-azabicyclo[3.1.0]hexane-2,4-dione] | 10 to 100
Cc1cc(Cl)cc(-c2ncnc3cc(CN4C(=O)CCNC4=O)sc23)c1C[C@@H]1CNCC(C)(C)O1 [Example 270, (R)-3-((4-(5-chloro-2-((6,6-dimethylmorpholin-2-yl)methyl)-3-methylphenyl)thieno[3,2-d]pyrimidin-6-yl)methyl)dihydropyrimidine-2,4(1H,3H)-dione] | < 10
Cc1cc(Cl)cc(-c2ncnc3cc(CN4C(=O)COC4=O)sc23)c1CC1CNCCO1 (stereo not shown) [Example 178, 3-((4-(5-chloro-3-methyl-2-(morpholin-2-ylmethyl)phenyl)thieno[3,2-d]pyrimidin-6-yl)methyl)oxazolidine-2,4-dione] | < 10
C[C@H]1CNC[C@H](C)N1Cc1c(Cl)cc(Cl)cc1-c1ccnc2cc(CN3C(=O)C4CC4C3=O)sc12 (stereo partly drawn) [Example 47, 3-((7-(3,5-dichloro-2-(((2S,6S)-2,6-dimethylpiperazin-1-yl)methyl)phenyl)thieno[3,2-b]pyridin-2-yl)methyl)-3-azabicyclo[3.1.0]hexane-2,4-dione] | < 10
COC[C@H]1CCC(=O)N1Cc1cc2ncnc(-c3cc(Cl)cc(C)c3CC3CNCC(C)(C)O3)c2s1 (stereo partly drawn) [Example 229, (5R)-1-((4-(5-chloro-2-((6,6-dimethylmorpholin-2-yl)methyl)-3-methylphenyl)thieno[3,2-d]pyrimidin-6-yl)methyl)-5-(methoxymethyl)pyrrolidin-2-one] | 10 to 100
Cc1cc(Cl)cc(-c2ccnc3cc(Cn4c(=O)ccn(C)c4=O)sc23)c1CN1C[C@@H](C)NC[C@@H]1C [Example 46, 3-((7-(5-chloro-2-(((2S,5R)-2,5-dimethylpiperazin-1-yl)methyl)-3-methylphenyl)thieno[3,2-b]pyridin-2-yl)methyl)-1-methylpyrimidine-2,4(1H,3H)-dione] | < 10
Cc1cc(Cl)cc(-c2ccnc3cc(CN4C(=O)C5CC5C4=O)sc23)c1C[C@H]1CNCC(C)(C)O1 (stereo partly drawn) [Example 134, 3-((7-(5-chloro-2-(((S)-6,6-dimethylmorpholin-2-yl)methyl)-3-methylphenyl)thieno[3,2-b]pyridin-2-yl)methyl)-3-azabicyclo[3.1.0]hexane-2,4-dione] | 10 to 100

Results, then the molecule that gave them:

IC50 [nM] | SMILES
< 10 | Cc1cc(Cl)cc(-c2ccnc3cc(CN4C(=O)C5CCC5C4=O)sc23)c1CC1CNCCO1 (stereo not shown) [Example 110, 3-((7-(5-chloro-3-methyl-2-(morpholin-2-ylmethyl)phenyl)thieno[3,2-b]pyridin-2-yl)methyl)-3-azabicyclo[3.2.0]heptane-2,4-dione]
< 10 | Cc1cc(Cl)cc(-c2ncnc3cc(CN4C(=O)CCC4C(F)(F)F)sc23)c1CC1CNCC(C)(C)O1 (stereo not shown) [Example 194, 1-((4-(5-chloro-2-((6,6-dimethylmorpholin-2-yl)methyl)-3-methylphenyl)thieno[3,2-d]pyrimidin-6-yl)methyl)-5-(trifluoromethyl)pyrrolidin-2-one]
< 10 | CC1(C)CNCC(Cc2c(Cl)cc(Cl)cc2-c2ncnc3cc(CN4C(=O)CCC4=O)sc23)O1 (stereo not shown) [Example 211, 1-((4-(3,5-dichloro-2-((6,6-dimethylmorpholin-2-yl)methyl)phenyl)thieno[3,2-d]pyrimidin-6-yl)methyl)pyrrolidine-2,5-dione]
< 10 | Cc1cc(Cl)cc(-c2ccnc3cc(CN4C(=O)C5CC5C4=O)sc23)c1C[C@@H]1CNCCO1 (stereo partly drawn) [Example 123, 3-((7-(5-chloro-3-methyl-2-(((R)-morpholin-2-yl)methyl)phenyl)thieno[3,2-b]pyridin-2-yl)methyl)-3-azabicyclo[3.1.0]hexane-2,4-dione]
< 10 | Cc1cc(Cl)cc(-c2ccnc3cc(CN4C(=O)CCC4=O)sc23)c1CN1CCNC(C)C1 (stereo not shown) [Example 18, 1-((7-(5-chloro-3-methyl-2-((3-methylpiperazin-1-yl)methyl)phenyl)thieno[3,2-b]pyridin-2-yl)methyl)pyrrolidine-2,5-dione]
< 10 | Cc1cc(Cl)cc(-c2ncnc3cc(CN4C(=O)CC(C)NC4=O)sc23)c1C[C@@H]1CNCCO1 (stereo partly drawn) [Example 248, 3-((4-(5-chloro-3-methyl-2-(((R)-morpholin-2-yl)methyl)phenyl)thieno[3,2-d]pyrimidin-6-yl)methyl)-6-methyldihydropyrimidine-2,4(1H,3H)-dione]
< 10 | Cc1cc(Cl)cc(-c2ccnc3cc(CN4C(=O)C5CC5C4=O)sc23)c1CC1CNCCOC1 (stereo not shown) [Example 112, 3-((7-(2-((1,4-oxazepan-6-yl)methyl)-5-chloro-3-methylphenyl)thieno[3,2-b]pyridin-2-yl)methyl)-3-azabicyclo[3.1.0]hexane-2,4-dione]
< 10 | Cc1cc(Cl)cc(-c2ncnc3cc(CN4C(=O)C5CC5C4=O)sc23)c1C[C@@H]1CNCCO1 (stereo partly drawn) [Example 182, 3-((4-(5-chloro-3-methyl-2-(((R)-morpholin-2-yl)methyl)phenyl)thieno[3,2-d]pyrimidin-6-yl)methyl)-3-azabicyclo[3.1.0]hexane-2,4-dione]
< 10 | Cc1cc(Cl)cc(-c2ncnc3cc(CN4C(=O)C5CC5C4=O)sc23)c1CC1CNCCO1 (stereo not shown) [Example 152, 3-((4-(5-chloro-3-methyl-2-(morpholin-2-ylmethyl)phenyl)thieno[3,2-d]pyrimidin-6-yl)methyl)-3-azabicyclo[3.1.0]hexane-2,4-dione]
< 10 | Cc1cc(Cl)cc(-c2ncnc3cc(CN4C(=O)C5CCC5C4=O)sc23)c1CC1CNCCO1 (stereo not shown) [Example 170, 3-((4-(5-chloro-3-methyl-2-(morpholin-2-ylmethyl)phenyl)thieno[3,2-d]pyrimidin-6-yl)methyl)-3-azabicyclo[3.2.0]heptane-2,4-dione]

— patent US11084829B2, “Ubiquitin-specific-processing protease 7 (USP7) modulators and uses thereof” (RAPT THERAPEUTICS, INC., priority 2018, dated 2021)
